Here are results for six molecules from patent US20110313006A1, “PHARMACEUTICAL COMPOSITION OF LEVAMLODIPINE OR PHARMACEUTICALLY ACCEPTABLE SALT THEREOF AND β RECEPTOR BLOCKING AGENT, AND USE THEREOF” (SHIHUIDA PHARMACEUTICALS GROUP (JILIN) LTD, priority 2010, published 2011).

For this experiment, the system named is SHR rats having spontaneous hypertension. The experiment in a line: Antihypertension test in rat (systolic pressure at the tail artery, tail volume method). Format: in vivo. The following applies: for Blood pressure (systolic pressure at the tail artery), 2 weeks after administration: end of week 2; for Blood pressure (systolic pressure at the tail artery), 3 weeks after administration: end of week 3; for Blood pressure (systolic pressure at the tail artery), 4 weeks after administration: end of week 4; for Blood pressure (systolic pressure at the tail artery), before administration / Anti-hypertensive effect compared with the model group: intragastric; for Blood pressure (systolic pressure at the tail artery), before administration: baseline before administration, mean ± spread; for Anti-hypertensive effect compared with the model group: versus model group (0.9% saline). The text has this: Experiment method: 120 SHR rats having spontaneous hypertension (female:male 1:2, weighted 200-240 g) were equally divided into 12 groups according to the level of hypertension (the specific grouping method is as shown in Table 1), and intragastrically administrated with the medicine. For the blood pressure of the rat, the systolic pressure at the tail artery of the rat when being wake and quiet was indirectly measured by an electronic blood pressure meter through tail volume method respectively before administration, and at the end of 1, 2, 3, and 4 weeks after administration.

[1] abbreviates: SHR rats, intragastric daily, n = 10, end of week 1, dose per group in Table 1.
[2] abbreviates: SHR rats, intragastric daily, n = 10, dose per group in Table 1.
[3] abbreviates: SHR rats, n = 10, dose per group in Table 1.

In the case of `OC(CNCC(O)C1CCc2cc(F)ccc2O1)C1CCc2cc(F)ccc2O1` (stereo not shown) [Single medicine group 2, Nebivolol], under setting [1], the “Blood pressure (systolic pressure at the tail artery), 1 week after administration” value (“Blood pressure … 1 week after administration” below) worked out at 27.28 ± 1.48 Kpa. Also, under setting [2], the “Blood pressure (systolic pressure at the tail artery), 2 weeks after administration” value (from here on “Blood pressure … 2 weeks after administration”) is 25.94 ± 1.68 KPa; the “Blood pressure (systolic pressure at the tail artery), 3 weeks after administration” value (shortened to “Blood pressure … 3 weeks after administration”) was found to be 25.57 ± 1.61 KPa; the “Blood pressure (systolic pressure at the tail artery), 4 weeks after administration” value (“Blood pressure … 4 weeks after administration” for short) came out at 25.29 ± 1.49 KPa. Further, the “Blood pressure (systolic pressure at the tail artery), before administration” value (from here on “Blood pressure … before administration”) under setting [3] amounted to 27.42 ± 1.50 KPa. For the same molecule, the “Anti-hypertensive effect compared with the model group” value (SHR rats) is on record as “significant anti-hypertensive effect”.

In the case of `CC(C)NCC(O)COc1ccc(COCCOC(C)C)cc1` (stereo not shown) [Single medicine group 3, Bisoprolol], the “Blood pressure … 1 week after administration” value under setting [1] is reported as 27.34 ± 1.41 Kpa. In addition, under setting [2], the “Blood pressure … 2 weeks after administration” value was determined as 26.14 ± 1.19 KPa; the “Blood pressure … 3 weeks after administration” value is recorded as 25.82 ± 1.20 KPa; the “Blood pressure … 4 weeks after administration” value is given as 25.58 ± 1.24 KPa. In addition, under setting [3], the “Blood pressure … before administration” value was found to be 27.52 ± 1.46 KPa. Also, the “Anti-hypertensive effect compared with the model group” value (SHR rats) is reported as “significant anti-hypertensive effect”.

On to `CC(C)NCC(O)COc1ccc(CCOCC2CC2)cc1` (stereo not shown) [Single medicine group 4, Betaxolol], for which, under setting [2], the “Blood pressure … 2 weeks after administration” value is 25.99 ± 1.39 KPa and the “Blood pressure … 3 weeks after administration” value is on record as 25.62 ± 1.46 KPa. Under setting [3], the “Blood pressure … before administration” value came out at 27.45 ± 1.07 KPa. For the same molecule, under “SHR rats”, the “Anti-hypertensive effect compared with the model group” value is “significant anti-hypertensive effect”. The “Blood pressure … 1 week after administration” value (po, 168 h) is 27.20 ± 1.10 Kpa.

As for `CCN(CC)C(=O)Nc1ccc(OCC(O)CNC(C)(C)C)c(C(C)=O)c1` (stereo not shown) [Single medicine group 5, Celiprolol], under setting [1], the “Blood pressure … 1 week after administration” value is on record as 27.41 ± 1.30 Kpa. Also, under setting [2], the “Blood pressure … 3 weeks after administration” value worked out at 25.83 ± 1.92 KPa and the “Blood pressure … 4 weeks after administration” value came to 25.60 ± 2.05 KPa. Moreover, the “Blood pressure … before administration” value under setting [3] turned out to be 27.56 ± 1.23 KPa. Besides, the “Anti-hypertensive effect compared with the model group” value (SHR rats) is reported as “significant anti-hypertensive effect”.

For `CC(C)(C)NCC(O)COc1cccc2c1CC(O)C(O)C2` (stereo not shown) [Single medicine group 6, Nadolol], the “Blood pressure … 1 week after administration” value under setting [1] was 27.30 ± 1.56 Kpa. In addition, under setting [2], the “Blood pressure … 2 weeks after administration” value was 26.01 ± 1.42 KPa and the “Blood pressure … 3 weeks after administration” value was found to be 25.62 ± 1.47 KPa. The “Blood pressure … before administration” value under setting [3] was determined as 27.51 ± 1.53 KPa. Moreover, the “Anti-hypertensive effect compared with the model group” value (SHR rats) is “significant anti-hypertensive effect”.

Take “Levamlodipine benzenesulfonate [Single medicine group 1]”: for the setting “SHR rats”, the “Anti-hypertensive effect compared with the model group” value is recorded as “significant anti-hypertensive effect”.
